Measurements from ChEMBL document CHEMBL1201862, “PubChem BioAssay data set” (2004).
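All cell lines were grown in 96-well plates and treated with compound for 48 hours. Here, GI50 denotes the concentration required for 50% inhibition of growth.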 Active and inactive are the calls of the source. Cut-off read from the data, not from the text of the source: active = GI50 up to about 1.1 µM and inactive = higher.

Legend:
Test in all cases: NCI tumour cell line growth inhibition, 48 h
K562 = system: K562
MOLT-4 = system: MOLT-4
Malme-3M = system: Malme-3M
ACHN = system: ACHN
SF-295 = system: SF-295
U-251 = system: U-251
CCRF-CEM = system: CCRF-CEM
SF-268 = system: SF-268
TK-10 = system: TK-10
LOX IMVI = system: LOX IMVI
OVCAR-5 = system: OVCAR-5
SR = system: SR
MDA-MB-231 = system: MDA-MB-231
SNB-19 = system: SNB-19
HCT-116 = system: HCT-116
CAKI-1 = system: CAKI-1
HOP-92 = system: HOP-92
SK-MEL-2 = system: SK-MEL-2
BT-549 = system: BT-549
OVCAR-4 = system: OVCAR-4

Measured: GI50

Nc1ccccc1CC(O)C(=O)O (centres undefined)
inactive: K562 > 100 µM | MOLT-4 > 100 µM | Malme-3M > 100 µM | ACHN > 100 µM | SF-295 > 100 µM | U-251 > 100 µM | CCRF-CEM > 100 µM | SF-268 > 100 µM | TK-10 > 100 µM | LOX IMVI > 100 µM | OVCAR-5 > 100 µM | SR > 100 µM | MDA-MB-231 > 100 µM | SNB-19 > 100 µM | HCT-116 > 100 µM | CAKI-1 > 100 µM | HOP-92 > 100 µM

O=C(O)c1ccc(NC(NC(=O)C(C(F)(F)F)C(F)(F)F)(C(F)(F)F)C(F)(F)F)cc1
inactive: K562 > 100 µM | MOLT-4 > 100 µM | SK-MEL-2 > 100 µM | ACHN > 100 µM | U-251 > 100 µM | CCRF-CEM > 100 µM | SF-268 > 100 µM | TK-10 > 100 µM | LOX IMVI > 100 µM | BT-549 > 100 µM | OVCAR-5 > 100 µM | SR > 100 µM | SNB-19 > 100 µM | HCT-116 > 100 µM | CAKI-1 > 100 µM

NC1CNC(=O)c2cscc21 (centres undefined)
inactive: K562 > 100 µM | MOLT-4 > 100 µM | Malme-3M > 100 µM | ACHN > 100 µM | SF-295 > 100 µM | U-251 > 100 µM | CCRF-CEM > 100 µM | OVCAR-4 > 100 µM | SF-268 > 100 µM | LOX IMVI > 100 µM | BT-549 > 100 µM | OVCAR-5 > 100 µM | SR > 100 µM | SNB-19 > 100 µM | HCT-116 > 100 µM | CAKI-1 > 100 µM | HOP-92 > 100 µM

CC1CN=C(Nc2ccc(F)cc2F)S1 (centres undefined)
inactive: K562 > 100 µM | MOLT-4 > 100 µM | Malme-3M > 100 µM | SK-MEL-2 > 100 µM | ACHN > 100 µM | SF-295 > 100 µM | U-251 > 100 µM | CCRF-CEM > 100 µM | OVCAR-4 > 100 µM | SF-268 > 100 µM | TK-10 > 100 µM | LOX IMVI > 100 µM | OVCAR-5 > 100 µM | SR > 100 µM | MDA-MB-231 > 100 µM | SNB-19 > 100 µM | HCT-116 > 100 µM | CAKI-1 > 100 µM | HOP-92 15.6 µM

Cc1cc(C)n(C(=O)CSc2nc3ccc(I)cc3c(=O)n2Cc2ccccc2)n1
inactive: K562 > 100 µM | MOLT-4 > 100 µM | SK-MEL-2 47.4 µM | ACHN 44.5 µM | SF-295 29.8 µM | U-251 35.8 µM | CCRF-CEM 67.1 µM | OVCAR-4 35.1 µM | SF-268 17.3 µM | TK-10 41.6 µM | LOX IMVI > 100 µM | OVCAR-5 > 100 µM | SR > 100 µM | MDA-MB-231 23.3 µM | SNB-19 43.1 µM | HCT-116 57 µM | CAKI-1 4.63 µM | HOP-92 15.5 µM

CCCCc1ccc(-n2sc3ncc(-c4ccccc4)cc3c2=O)cc1
inactive: K562 > 100 µM | MOLT-4 > 100 µM | SK-MEL-2 > 100 µM | ACHN > 100 µM | SF-295 > 100 µM | U-251 > 100 µM | CCRF-CEM > 100 µM | OVCAR-4 42.1 µM | TK-10 > 100 µM | LOX IMVI > 100 µM | BT-549 59.6 µM | OVCAR-5 > 100 µM | SR > 100 µM | SNB-19 > 100 µM | HCT-116 > 100 µM | CAKI-1 64.3 µM | HOP-92 > 100 µM

O=[N+]([O-])c1ccc2nc(-c3ccccn3)c(-c3ccccn3)nc2c1
inactive: MOLT-4 > 100 µM | Malme-3M 61.2 µM | SK-MEL-2 > 100 µM | ACHN 80 µM | SF-295 96.8 µM | U-251 > 100 µM | CCRF-CEM 69.8 µM | OVCAR-4 > 100 µM | SF-268 > 100 µM | TK-10 > 100 µM | BT-549 > 100 µM | OVCAR-5 > 100 µM | SR 33.1 µM | SNB-19 > 100 µM | HCT-116 38.9 µM | CAKI-1 > 100 µM | HOP-92 > 100 µM

COc1ccc(C=C2C(C)=NN(c3cccc(Cl)c3)C23C(Cl)C(=O)N3c2nc3ccccc3s2)cc1 (centres undefined)
inactive: K562 22.8 µM | MOLT-4 15.9 µM | SK-MEL-2 17.4 µM | ACHN 21.5 µM | SF-295 22.1 µM | U-251 14.6 µM | CCRF-CEM 3.45 µM | OVCAR-4 23.9 µM | SF-268 4.89 µM | TK-10 26.8 µM | LOX IMVI 17.7 µM | OVCAR-5 17.3 µM | SR 21.6 µM | MDA-MB-231 12.9 µM | HCT-116 15.5 µM | CAKI-1 23.2 µM | HOP-92 9.02 µM

Cc1c(C(=O)CC(=O)C(=O)NC2C3CC4CC(C3)CC2C4)[n+]([O-])c2ccccc2[n+]1[O-] (centres undefined)
inactive: K562 > 100 µM | MOLT-4 > 100 µM | Malme-3M > 100 µM | SK-MEL-2 > 100 µM | ACHN > 100 µM | SF-295 > 100 µM | U-251 > 100 µM | CCRF-CEM 90.6 µM | OVCAR-4 > 100 µM | SF-268 > 100 µM | TK-10 > 100 µM | LOX IMVI > 100 µM | OVCAR-5 > 100 µM | SR > 100 µM | SNB-19 > 100 µM | HCT-116 > 100 µM | CAKI-1 > 100 µM | HOP-92 > 100 µM

Fc1ccc(-c2sc(-c3ccsc3)cc2Cc2ccsc2)cc1
inactive: K562 > 10 µM | MOLT-4 > 10 µM | Malme-3M > 10 µM | SF-295 > 10 µM | CCRF-CEM > 10 µM | OVCAR-4 > 10 µM | SF-268 > 10 µM | TK-10 > 10 µM | LOX IMVI > 10 µM | SR > 10 µM | MDA-MB-231 > 10 µM | CAKI-1 > 10 µM | HOP-92 > 10 µM

CSC(SC)=C(C(=O)O)P(=O)(O)O
inactive: MOLT-4 > 100 µM | Malme-3M > 100 µM | SK-MEL-2 > 100 µM | ACHN > 100 µM | SF-295 > 100 µM | CCRF-CEM > 100 µM | OVCAR-4 > 100 µM | SF-268 > 100 µM | TK-10 > 100 µM | LOX IMVI > 100 µM | OVCAR-5 > 100 µM | SR > 100 µM | MDA-MB-231 > 100 µM | SNB-19 > 100 µM | HCT-116 > 100 µM | CAKI-1 > 100 µM | HOP-92 > 100 µM

COC(=O)C(C)(/N=C/c1ccccc1)c1ccccc1 (centres undefined)
inactive: K562 > 100 µM | MOLT-4 > 100 µM | Malme-3M > 100 µM | SK-MEL-2 > 100 µM | ACHN > 100 µM | SF-295 > 100 µM | U-251 > 100 µM | CCRF-CEM > 100 µM | OVCAR-4 > 100 µM | SF-268 > 100 µM | TK-10 > 100 µM | LOX IMVI > 100 µM | OVCAR-5 > 100 µM | SR > 100 µM | MDA-MB-231 > 100 µM | SNB-19 > 100 µM | HCT-116 > 100 µM | CAKI-1 > 100 µM | HOP-92 > 100 µM
